# Measured values from ChEMBL document CHEMBL1201862, “PubChem BioAssay data set” (2004).
# Activity calls are given as the source filed them.
# Tests used:
# Beta-lactamase = Beta-lactamase (Salmonella choleraesuis (strain SC-B67), UniProt Q5J463)
# Insulin-degrading enzyme = molecular target: T1, Insulin-degrading enzyme (Homo sapiens, UniProt P14735); test: recombinant IDE activation, cell-free – biochemical, fluorescence polarization, counter-screen for IDE activator project, dose response (AID 588681)
# T1 sequence (P14735 whole entry): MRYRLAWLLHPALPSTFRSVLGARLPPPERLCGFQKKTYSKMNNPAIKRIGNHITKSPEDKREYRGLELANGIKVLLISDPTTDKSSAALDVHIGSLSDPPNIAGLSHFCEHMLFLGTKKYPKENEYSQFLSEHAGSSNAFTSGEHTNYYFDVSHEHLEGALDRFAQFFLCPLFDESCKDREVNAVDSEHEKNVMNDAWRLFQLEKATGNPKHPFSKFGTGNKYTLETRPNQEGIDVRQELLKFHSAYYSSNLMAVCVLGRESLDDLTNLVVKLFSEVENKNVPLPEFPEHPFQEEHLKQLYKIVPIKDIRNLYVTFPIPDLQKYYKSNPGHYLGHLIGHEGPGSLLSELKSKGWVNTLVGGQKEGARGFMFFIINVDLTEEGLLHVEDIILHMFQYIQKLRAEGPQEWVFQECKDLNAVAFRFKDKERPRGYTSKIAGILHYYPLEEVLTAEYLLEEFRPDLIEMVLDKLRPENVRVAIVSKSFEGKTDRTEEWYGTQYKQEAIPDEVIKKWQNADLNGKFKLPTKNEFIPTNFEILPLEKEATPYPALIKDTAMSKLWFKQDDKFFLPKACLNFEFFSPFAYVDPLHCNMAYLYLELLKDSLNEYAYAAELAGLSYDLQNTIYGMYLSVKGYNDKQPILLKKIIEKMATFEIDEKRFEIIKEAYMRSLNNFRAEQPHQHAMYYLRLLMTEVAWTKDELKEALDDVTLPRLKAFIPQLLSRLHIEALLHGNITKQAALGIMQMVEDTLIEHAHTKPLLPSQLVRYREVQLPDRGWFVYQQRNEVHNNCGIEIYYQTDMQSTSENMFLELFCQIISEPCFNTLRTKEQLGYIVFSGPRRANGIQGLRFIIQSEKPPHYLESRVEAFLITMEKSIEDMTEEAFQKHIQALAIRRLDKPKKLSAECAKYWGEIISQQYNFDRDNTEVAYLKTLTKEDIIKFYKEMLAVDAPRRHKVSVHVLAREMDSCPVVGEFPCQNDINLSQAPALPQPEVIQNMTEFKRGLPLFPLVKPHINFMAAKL
# Ephrin type-A receptor 4 = Ephrin type-A receptor 4 (Mus musculus, UniProt Q03137); test: EphA4 ligand-binding antagonists – biochemical, colorimetric, mouse EphA4, primary screen (AID 689); assay type: functional
# [1] = molecular target: Induced myeloid leukemia cell differentiation protein Mcl-1 (Homo sapiens, UniProt Q07820); assay type: functional
# Cytochrome P450 2C19 = Cytochrome P450 2C19 (Homo sapiens, UniProt P33261); test: Cytochrome panel assay with activity outcomes. Panel member name: p450-cyp2c19 Compounds with AC50 equal or less than 10 uM are considered active; assay type: functional; settings: read-out: AC50
# [2] = molecular target: T2, Apoptotic protease-activating factor 1 (Homo sapiens, UniProt O14727); assay type: functional
# T2 sequence (O14727 whole entry): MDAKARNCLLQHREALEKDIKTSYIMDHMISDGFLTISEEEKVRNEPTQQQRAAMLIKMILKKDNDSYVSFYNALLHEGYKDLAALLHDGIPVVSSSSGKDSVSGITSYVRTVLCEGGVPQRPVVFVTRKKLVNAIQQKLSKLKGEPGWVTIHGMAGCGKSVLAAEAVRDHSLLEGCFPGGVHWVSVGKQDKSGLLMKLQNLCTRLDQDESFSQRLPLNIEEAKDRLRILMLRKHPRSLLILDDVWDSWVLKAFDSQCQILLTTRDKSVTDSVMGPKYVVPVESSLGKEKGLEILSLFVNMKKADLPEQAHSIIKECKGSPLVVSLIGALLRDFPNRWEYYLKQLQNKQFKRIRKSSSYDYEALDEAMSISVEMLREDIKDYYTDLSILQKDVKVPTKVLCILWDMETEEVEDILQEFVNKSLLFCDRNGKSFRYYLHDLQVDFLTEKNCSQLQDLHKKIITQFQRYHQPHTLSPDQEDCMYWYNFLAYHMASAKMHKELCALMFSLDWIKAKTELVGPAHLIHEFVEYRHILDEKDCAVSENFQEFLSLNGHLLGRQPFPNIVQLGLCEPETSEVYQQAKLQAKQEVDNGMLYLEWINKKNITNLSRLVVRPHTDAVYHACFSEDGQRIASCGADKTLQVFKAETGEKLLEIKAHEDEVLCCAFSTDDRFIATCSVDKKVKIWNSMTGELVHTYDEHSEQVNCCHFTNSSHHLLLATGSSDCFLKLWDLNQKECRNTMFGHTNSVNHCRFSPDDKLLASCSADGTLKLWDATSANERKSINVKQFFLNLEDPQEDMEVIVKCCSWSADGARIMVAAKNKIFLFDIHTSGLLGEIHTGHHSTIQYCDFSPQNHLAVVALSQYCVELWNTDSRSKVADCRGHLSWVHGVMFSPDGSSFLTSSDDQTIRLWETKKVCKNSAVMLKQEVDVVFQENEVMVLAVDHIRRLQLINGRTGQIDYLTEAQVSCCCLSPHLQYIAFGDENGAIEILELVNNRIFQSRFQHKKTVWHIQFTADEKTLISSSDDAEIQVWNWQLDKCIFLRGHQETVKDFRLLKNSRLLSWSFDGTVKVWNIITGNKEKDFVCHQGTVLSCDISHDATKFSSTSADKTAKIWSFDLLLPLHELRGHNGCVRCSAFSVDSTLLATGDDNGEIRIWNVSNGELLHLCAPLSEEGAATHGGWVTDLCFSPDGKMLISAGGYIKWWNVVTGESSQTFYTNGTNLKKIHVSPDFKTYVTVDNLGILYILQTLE
# [3] = NIH-3T3 fibroblast cytotoxicity, dose response, cytotoxicity control, cell-based, fluorescence, Alamar Blue, secondary assay (AID 2327); assay type: functional;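 further: NIH-3T3 mouse fibroblasts cultured with fluconazole at 8 µg/mL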
# [4] = Luminescence Cell-Based Dose Response HTS to Identify Inhibitors of 5'UTR Stem-Loop Driven Prion Protein mRNA Translation in H4 Neuroglioblastoma Cells. [Related pubchem assays: 1827 (Project Summary), 1813 (Primary HTS)]; assay type: functional
# [5] = alpha-synuclein stem-loop luciferase translation blockers – H4 neuroglioma cells, luminescence, confirmation (AID 1988); assay type: functional, cell-based
# [6] = fluconazole-exposed Candida albicans growth modulators – fluorescence, retest, confirmation (AID 2467); assay type: functional, cell-based
# [7] = molecular target: Heat shock protein HSP 90-alpha (Homo sapiens, UniProt P07900); assay type: functional, organism-based
# [8] = activation of miR-122 Renilla sensor silencing – cell-based, Huh7 psiCHECK-miR122, Renilla luciferase, cherry-picked, dose response (AID 651956); assay type: functional;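 further: huh7 hepatoma cells stably carrying a psiCHECK-2 miR-122 sensor plasmid; renilla luciferase signal reporting endogenous miR-122 activity after 48 h compound exposure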
# [9] = general mammalian cell viability loss – activator set, cherry-pick, cytotoxicity control for miR-122 modulator project, dose response (AID 720690); assay type: functional, cell-based;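 further: HEK293T human cells scored for general mammalian cytotoxicity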
# Induced myeloid leukemia cell differentiation protein Mcl-1, sequence (Q07820 whole entry): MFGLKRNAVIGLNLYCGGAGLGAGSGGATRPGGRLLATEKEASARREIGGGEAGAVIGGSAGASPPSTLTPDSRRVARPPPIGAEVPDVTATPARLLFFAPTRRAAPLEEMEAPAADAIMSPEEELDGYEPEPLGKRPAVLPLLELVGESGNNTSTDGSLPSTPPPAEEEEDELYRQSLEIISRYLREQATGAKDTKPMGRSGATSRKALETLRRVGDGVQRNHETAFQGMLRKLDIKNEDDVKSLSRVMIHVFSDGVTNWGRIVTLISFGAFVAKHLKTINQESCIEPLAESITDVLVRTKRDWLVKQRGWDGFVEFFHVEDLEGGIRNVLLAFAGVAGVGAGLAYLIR
# Ephrin type-A receptor 4, sequence (Q03137 whole entry): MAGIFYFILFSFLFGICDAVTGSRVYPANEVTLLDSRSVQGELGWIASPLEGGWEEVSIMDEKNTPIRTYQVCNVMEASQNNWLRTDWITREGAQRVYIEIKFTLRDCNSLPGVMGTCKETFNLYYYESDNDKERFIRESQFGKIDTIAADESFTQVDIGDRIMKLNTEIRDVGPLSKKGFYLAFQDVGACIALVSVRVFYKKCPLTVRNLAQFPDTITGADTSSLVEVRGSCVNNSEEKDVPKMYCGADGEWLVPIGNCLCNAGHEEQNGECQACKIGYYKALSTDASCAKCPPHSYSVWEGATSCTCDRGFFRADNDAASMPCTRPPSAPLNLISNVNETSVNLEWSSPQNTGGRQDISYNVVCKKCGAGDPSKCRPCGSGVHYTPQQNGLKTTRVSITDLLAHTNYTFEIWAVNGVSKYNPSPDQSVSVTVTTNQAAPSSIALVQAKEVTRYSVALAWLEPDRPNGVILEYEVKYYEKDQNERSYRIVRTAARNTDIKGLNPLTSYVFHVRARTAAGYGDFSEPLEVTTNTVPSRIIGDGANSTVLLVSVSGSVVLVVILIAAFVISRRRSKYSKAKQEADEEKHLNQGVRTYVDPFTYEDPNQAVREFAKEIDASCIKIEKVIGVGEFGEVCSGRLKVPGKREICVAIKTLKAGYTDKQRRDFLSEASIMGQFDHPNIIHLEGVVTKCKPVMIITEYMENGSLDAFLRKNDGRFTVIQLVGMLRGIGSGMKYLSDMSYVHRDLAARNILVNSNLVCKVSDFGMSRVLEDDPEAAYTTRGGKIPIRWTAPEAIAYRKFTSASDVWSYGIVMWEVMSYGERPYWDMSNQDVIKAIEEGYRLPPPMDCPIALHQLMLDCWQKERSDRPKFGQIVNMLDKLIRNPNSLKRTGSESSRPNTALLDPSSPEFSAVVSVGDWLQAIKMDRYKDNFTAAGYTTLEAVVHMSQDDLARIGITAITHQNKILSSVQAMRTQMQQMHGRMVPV
# Cytochrome P450 2C19, sequence (P33261 whole entry): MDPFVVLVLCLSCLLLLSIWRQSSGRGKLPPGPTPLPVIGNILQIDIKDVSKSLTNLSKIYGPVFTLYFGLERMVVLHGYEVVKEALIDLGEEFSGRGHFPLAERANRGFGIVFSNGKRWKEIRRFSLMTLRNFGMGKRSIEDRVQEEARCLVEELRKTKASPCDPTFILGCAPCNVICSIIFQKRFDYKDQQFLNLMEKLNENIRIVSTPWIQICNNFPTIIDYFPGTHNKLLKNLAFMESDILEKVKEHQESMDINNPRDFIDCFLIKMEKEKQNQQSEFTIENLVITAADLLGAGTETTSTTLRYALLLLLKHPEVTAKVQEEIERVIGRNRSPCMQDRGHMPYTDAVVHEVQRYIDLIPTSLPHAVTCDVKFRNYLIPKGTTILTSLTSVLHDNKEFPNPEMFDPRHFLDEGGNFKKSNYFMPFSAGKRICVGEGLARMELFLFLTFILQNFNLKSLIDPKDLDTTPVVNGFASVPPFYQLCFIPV
# Beta-lactamase, sequence (Q5J463 whole entry): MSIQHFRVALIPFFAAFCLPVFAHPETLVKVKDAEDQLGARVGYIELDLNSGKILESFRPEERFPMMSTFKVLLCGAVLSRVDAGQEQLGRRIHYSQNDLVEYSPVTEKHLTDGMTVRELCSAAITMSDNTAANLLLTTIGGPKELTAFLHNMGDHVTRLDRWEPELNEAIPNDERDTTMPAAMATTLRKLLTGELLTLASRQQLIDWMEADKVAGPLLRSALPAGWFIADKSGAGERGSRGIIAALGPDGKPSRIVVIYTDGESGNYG
compound,measurement,setting,value
O=C1CCN2C=Nc3cccc4ccc1c2c34,IC50,Beta-lactamase,7.55 µM (active)
same,EC50,Insulin-degrading enzyme,> 54.7 µM (inactive)
CC(C)C(C(=O)O)N1C(=O)/C(=C/C=C/c2ccco2)SC1=S (stereo not drawn),IC50,Ephrin type-A receptor 4,5.26 µM (active)
same,IC50,[1],> 54 µM (active)
same,AC50,Cytochrome P450 2C19,10 µM (inconclusive)
same,IC50,[2],> 100 µM (inactive)
Oc1ccc2ccccc2c1/C=N/Nc1nnc(-c2ncc[nH]2)c2ccccc12,EC50,[3],11.4 µM (active)
same,EC50,[4],0.292 µM (active)
same,EC50,[5],0.224 µM (active)
same,EC50,[6],0.714 µM (active)
same,AC50,[7],3.53 µM (active)
same,AC50,[8],37.6 µM (active)
same,AC50,[9],3.09 µM (active)
